From patent EP4792811A1, “S1PR4 REGULATOR COMPOUND FOR MUSCLE DISEASE TREATMENT AND APPLICATION THEREOF” (Shengyuan Zetong (Shanghai) Pharmaceutical Co., Ltd, priority 2023, dated 2025) come the findings set out here.

Assay [1] deals with T1, S1PR3 (Homo sapiens, UniProt Q99500).
T1 construct: expressed in transfected cells; host or cells: PathHunter CHO-K1
Briefly: β-arrestin recruitment, PathHunter CHO-K1-S1PR3 cells. The class given is cell-based. As for the experimental part:
(§1) ^a β-arrestin recruitment activity based on Tango-S1PR1-CHO-K1 and Tango-S1PR4-CHO-K1 cells, expressed as mean EC50 values ± SD. ^b FLIPR assays were performed using S1PR2-CHO and S1PR5-CHO cell lines, expressed as mean EC50 values ± SD. ^c β-arrestin recruitment activity based on PathHunter CHO-K1-S1PR3 cells, expressed as mean EC50 values ± SD. Data are the mean of at least two independent determinations, reported as mean ± SD (standard deviation).
In general terms: Activated receptors often draw arrestin, which recruitment assays turn into a signal.

In assay [2] the target is T2, hS1P1 (Homo sapiens, UniProt P21453).
T2 construct: expressed in transfected cells; host or cells: CHO-K1
T2 sequence (P21453 whole entry): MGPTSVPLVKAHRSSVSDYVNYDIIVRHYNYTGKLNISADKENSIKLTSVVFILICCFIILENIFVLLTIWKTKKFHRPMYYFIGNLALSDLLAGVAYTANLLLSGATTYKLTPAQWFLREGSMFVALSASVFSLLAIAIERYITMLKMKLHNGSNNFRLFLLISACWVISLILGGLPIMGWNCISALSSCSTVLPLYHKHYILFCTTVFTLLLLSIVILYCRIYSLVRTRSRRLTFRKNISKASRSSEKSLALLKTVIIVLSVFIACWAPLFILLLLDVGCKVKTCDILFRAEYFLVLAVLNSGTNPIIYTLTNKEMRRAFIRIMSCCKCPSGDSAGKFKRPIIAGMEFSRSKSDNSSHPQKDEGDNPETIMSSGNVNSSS
Kind of assay: Tango β-arrestin recruitment assay, Tango-hS1P1-CHO. To be noted: selectivity table; Tango-S1PR1-CHO-K1 cells. The class given is cell-based. The procedure, abridged:
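CHO-K1 cells co-express receptor–V2 tail–NTEV–tTA, CTEV–truncated β-arrestin 2 and a tTA-driven luciferase reporter. 10,000 cells/well were plated for 20 h, then treated 20 h with 9 five-fold dilutions from 45 µM final, with luminescence read-out. BAF-312 positive control was 1 µM for S1P1 and 25 µM for S1P4. EC50 is mean ± SD, ≥2 determinations.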

For assay [3], the target named is T3, hS1P4 (Homo sapiens, UniProt O95977).
T3 construct: expressed in transfected cells; host or cells: CHO-K1
T3 sequence (O95977 1-384): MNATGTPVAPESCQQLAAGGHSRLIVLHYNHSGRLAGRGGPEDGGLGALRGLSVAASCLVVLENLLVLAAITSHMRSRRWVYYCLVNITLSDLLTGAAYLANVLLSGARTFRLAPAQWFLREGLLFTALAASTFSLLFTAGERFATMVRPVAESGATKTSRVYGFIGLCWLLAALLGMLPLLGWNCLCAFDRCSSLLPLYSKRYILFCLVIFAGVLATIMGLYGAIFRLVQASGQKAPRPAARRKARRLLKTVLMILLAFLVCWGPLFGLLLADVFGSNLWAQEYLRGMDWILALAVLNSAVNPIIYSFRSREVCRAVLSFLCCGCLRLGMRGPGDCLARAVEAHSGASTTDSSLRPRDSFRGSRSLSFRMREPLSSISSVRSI
Briefly: Tango β-arrestin recruitment assay, Tango-hS1P4-CHO. In kind it is cell-based. To be noted: selectivity table; Tango-S1PR4-CHO-K1 cells.
Description: The Tango assay detects ligand-dependent GPCR activity through the interaction between β-arrestin and GPCRs. […] The NTEV fragment and the tetracycline transactivator (tTA), an artificial transcription factor, are fused at the C-terminus of the GPCR, while the CTEV fragment is fused to human β-arrestin 2. To enhance the stability of the interaction between GPCR and β-arrestin, a short sequence from the C-terminus of the human arginine vasopressin receptor 2 (V2 tail) is inserted between the GPCR and NTEV. The V2 tail contains multiple GRK phosphorylation sites, which strengthen β-arrestin binding upon phosphorylation. The CTEV fragment carries the stabile point mutation S219P and is truncated at residue 221 to remove the autoinhibitory C-terminal tail. Meanwhile, β-arrestin 2 is truncated to lack the entire C-terminal tail (residues 383-410 deleted). This truncation confers robust stimulus-dependent receptor desensitization, thereby improving detection sensitivity compared with wild-type β-arrestin 2. The UAS reporter construct consists of upstream activating sequence (UAS) elements, a minimal CMV promoter, and a tTA-dependent luciferase reporter gene. Therefore, constructing Tango cells requires the co-transfection of the above three plasmids into host cells. Upon GPCR activation and β-arrestin recruitment, the TEV enzyme at the β-arrestin terminus cleaves tTA from the GPCR C-terminus. The released tTA initiates tTA-dependent luciferase transcription, and compound activity is ultimately determined by measuring luminescence intensity.
• 1) Tango cell line from was digested from the culture dish respectively. After cell counting, the cells were plated at a density of 10,000 cells per well with […] into a white opaque 96-well plate (add 60 µL D'Hanks to the surrounding wells), and incubated overnight (20 h) in a 5% CO2 incubator at 37°C. The cell density will reach approximately 90% the next day. • 2) After 20 h, 30 µL of serially diluted compound solution was added to each well. The control group was supplemented with 30 µL F12K complete medium. Each group had three replicate wells. • 3) Samples were collected after 20 h of drug treatment.
(All compounds were tested at a final concentration of 45 µM, with 9 serial dilutions at 5-fold intervals. 1 µM BAF-312 was used as the positive control for S1PR1, and 25 µM BAF-312 was used as the positive control for S1PR4.)
as §1

The test system of assay [4] is LPS-induced sepsis model. Kind of assay: LPS-induced sepsis myopathy (skeletal muscle atrophy) model. The class given is in vivo, mice. To be noted: for atrophy of the tibialis anterior muscle: 14 days of LPS treatment; for survival rate: 14 days after LPS (1 mg/kg). The text has this: Animal models of sepsis can be established by injecting exogenous toxins into animals. In this study, a sepsis model was established via intraperitoneal injection of lipopolysaccharide to observe the effects of compounds on the occurrence and development of acquired weakness. This is a widely used method for modeling sepsis.
A skeletal muscle atrophy model induced by lipopolysaccharide can simulate clinical muscle atrophy caused by sepsis.
Mice were given a single intraperitoneal injection of LPS (1 mg/kg), followed by 14 consecutive days of intraperitoneal injection of either vehicle (1% DMSO dissolved in physiological saline) or Compound 30. Body weight was measured daily. After 14 days of LPS treatment, the mice were anesthetized, and the gastrocnemius and tibialis anterior muscles were harvested.

Assay [5] has as its target T4, S1PR2 (Homo sapiens, UniProt O95136).
T4 construct: expressed in transfected cells; host or cells: CHO
Briefly: FLIPR assay, S1PR2-CHO cell line. The class given is cell-based. As to the method:
as §1

The target in assay [6] is T5, S1PR4 (Homo sapiens, UniProt O95977).
T5 construct: expressed in transfected cells; host or cells: 293T
T5 sequence (O95977 1-384): T3 sequence (O95977 1-384)
Briefly: S1PR4 internalization function test in S1PR4-293T cells. The class given is cell-based. To be noted: 1 µM, 37 °C, 1.5 hours; detected immediately, or at 5 hours or 20 hours after treatment. As to the method:
Therefore, the recovery degree of S1PR4 after internalization caused by Compound 30 was evaluated, and the recovery effect following receptor internalization caused by Compound 30 was assessed in cells with high S1PR4 expression.

The mark [7] stands for this setting: compared with the endogenous ligand S1P.

T1 sequence (Q99500 whole entry): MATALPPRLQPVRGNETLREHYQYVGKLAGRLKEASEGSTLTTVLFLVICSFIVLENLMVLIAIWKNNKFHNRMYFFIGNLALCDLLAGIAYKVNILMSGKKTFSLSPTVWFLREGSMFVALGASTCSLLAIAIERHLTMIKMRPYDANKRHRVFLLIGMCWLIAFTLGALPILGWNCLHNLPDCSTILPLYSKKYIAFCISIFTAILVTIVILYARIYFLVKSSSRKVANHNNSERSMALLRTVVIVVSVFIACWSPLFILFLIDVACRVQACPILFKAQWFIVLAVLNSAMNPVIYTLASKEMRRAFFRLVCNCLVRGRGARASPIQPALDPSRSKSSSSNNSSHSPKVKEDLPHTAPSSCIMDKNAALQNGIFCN
T4 sequence (O95136 whole entry, species assumed): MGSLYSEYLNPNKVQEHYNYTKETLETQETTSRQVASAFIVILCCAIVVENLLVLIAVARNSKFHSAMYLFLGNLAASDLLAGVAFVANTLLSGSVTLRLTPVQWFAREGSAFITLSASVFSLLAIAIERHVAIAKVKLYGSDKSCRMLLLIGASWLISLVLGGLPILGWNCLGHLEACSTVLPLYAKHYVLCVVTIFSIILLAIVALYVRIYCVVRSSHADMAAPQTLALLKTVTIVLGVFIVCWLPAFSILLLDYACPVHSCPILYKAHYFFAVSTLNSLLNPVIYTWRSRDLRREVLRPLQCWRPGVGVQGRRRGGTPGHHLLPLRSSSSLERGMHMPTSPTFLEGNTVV

Regarding `CCc1cc(/C(C)=N/OCc2ccc(-c3ccccc3)c(C)c2)ccc1CN1CC[C@H](C(=O)O)C1` [Compound 30], the “agonist activity on S1PR3” value in assay [1] (setting [7]) was “no agonist activity”. Moreover, the Emax (as a rule, the greatest response seen or fitted, relative to the assay's reference) was 2.25% in assay [1] (selectivity table, PathHunter CHO-K1-S1PR3); 102% in assay [2]; 104% in assay [3]; -6.9% in assay [5] (selectivity table, FLIPR, S1PR2-CHO). For the same molecule, the “atrophy of the tibialis anterior muscle” value in assay [4] (high dose (Compound 30: 10mg/kg intraperitoneal once daily), 10 mg/kg) was “significantly inhibited”; in assay [4] (medium dose (Compound 30: 1mg/kg intraperitoneal once daily), 1 mg/kg), “significantly inhibited”. Also, the survival rate in assay [4] (low-dose group (0.1mg/kg intraperitoneal once daily)) came to 75%; in assay [4] (medium-dose group (1mg/kg intraperitoneal once daily)) it was 50%. Also, the “agonist activity on S1PR2” value in assay [5] (setting [7]) was “no agonist activity”. Moreover, in assay [6], the “S1PR4 internalization (expression of S1PR4 receptor on the cell surface)” value is reported as “sustained internalization capacity”.
